Laboratory results reported in US11478533B2, “Semaglutide for use in medicine” (Novo Nordisk A/S, priority 2020, dated 2022).

Tested on: subjects with NASH
Assay: Clinical Trial A: liver biopsy histology (NASH-CRN, Kleiner fibrosis classification) at trial week 72
Format: in vivo, human
Conditions: for Worsening of liver fibrosis stage determined via liver biopsy at end of trial compared to baseline, Proportion of subjects: all randomised subjects
From the text: NASH diagnosis may further include histological evidence of NASH with an NAFLD activity score (NAS) of more than 4. In some embodiments the term “NAFLD activity score” as used herein refers to the unweighted sum of the individual scores of steatosis (score 0-3), lobular inflammation (score 0-3), and hepatocyte ballooning (score 0-2) determined by liver biopsy histology according to NASH-CRN; thus, NAS is in the range of 0 to 8. In some embodiments NASH-CRN is as published in Kleiner et al. Hepatology. 2005; 41(6):1313-21 (e.g. Table 1) and Brunt et al. World J Gastroenterol. 2010; 16(42):5286-96. In some embodiments the term “steatosis” as used herein refers to liver biopsy histology showing low- to medium-power evaluation of parenchymal involvement by steatosis and is one of the stages with a score selected from the group consisting of “0” (<5%), “1” (5%-33%), “2” (>33%-66%), and “3” (>66%) according to NASH-CRN. In some embodiments the term “lobular inflammation” as used herein refers to the overall assessment of all inflammatory foci in liver biopsy histology and is one of the stages with a score selected from the group consisting of “0” (no foci), “1” (<2 foci per 200 times magnification field), “2” (2-4 foci per 200 times magnification field) and “3” (>4 foci per 200 times magnification field) according to NASH-CRN. In some embodiments the term “hepatocyte ballooning” as used herein refers to liver biopsy histology showing one of the stages with a score selected from the group consisting of “0” (none), “1” (few balloon cells) and “2” (many cells/prominent ballooning) according to NASH-CRN.
In some embodiments the method of the invention provides resolution of NASH. In some embodiments the term “resolution of NASH” as used herein refers to the subject no longer fulfilling the criteria for a NASH diagnosis. In some embodiments the term “resolution of NASH” refers to a liver biopsy histology showing (i) no more than mild residual inflammatory cells (i.e. inflammation score 0 or 1 according to NASH-CRN), (ii) no hepatocyte ballooning (i.e. hepatocyte ballooning score of 0 according to NASH-CRN), and (iii) any value for steatosis (i.e. steatosis score of 0-3 according to NASH-CRN). In some embodiments the method of the invention provides an improvement of lobular inflammation and/or hepatocyte ballooning. In some embodiments the term “improvement of lobular inflammation” as used herein refers to reduction by at least one stage of lobular inflammation (score 0-3) as defined herein; for example, reduction from a score 3 to a score 1. In some embodiments the term “improvement of hepatocyte ballooning” as used herein refers to reduction by at least one stage of hepatocyte ballooning (score 0-2) as defined herein; for example, reduction from a score 2 to a score 0.
In some embodiments the term “fibrosis” as used herein refers to the fibrosis stage in NASH described by the Kleiner fibrosis classification. In some embodiments the terms “Kleiner fibrosis classification” or “fibrosis stage” are used interchangeably herein and refer to the classification as defined in Kleiner et al. Hepatology, 2005; 41(6):1313-21 which consists of the stages selected from the group consisting of “0” (absence of fibrosis), “1” (portal/perisinusoidal fibrosis), “2” (perisinusoidal and portal/periportal fibrosis), “3” (septal or bridging fibrosis), and “4” (cirrhosis). In some embodiments the method of the invention provides no worsening of liver fibrosis. In some embodiments the terms “no worsening of liver fibrosis” or “no worsening of liver fibrosis stage” as used interchangeably herein refers to no increase of at least one stage of the Kleiner fibrosis classification.
A 72-week, randomised, double-blind, placebo-controlled, six-armed, parallel group, multicentre, multi-national phase 2 trial comparing once daily (OD) administration of semaglutide in three different doses (0.1 mg, 0.2 mg and 0.4 mg) with placebo in subjects with NASH was carried out. […]

[1] = 0.1 mg OD s.c., week 72, Fibrosis stage 1-3 at baseline (all randomised subjects)
[2] = 0.1 mg OD s.c., week 72, Fibrosis stage 1 at baseline
[3] = 0.1 mg OD s.c., week 72, Fibrosis stage 2 at baseline
[4] = 0.1 mg OD s.c., week 72, Fibrosis stage 2 or 3 at baseline
[5] = 0.1 mg OD s.c., week 72, Fibrosis stage 3 at baseline
[6] = 0.2 mg OD s.c., week 72, Fibrosis stage 1-3 at baseline (all randomised subjects)
[7] = 0.2 mg OD s.c., week 72, Fibrosis stage 1 at baseline
[8] = 0.2 mg OD s.c., week 72, Fibrosis stage 2 at baseline
[9] = 0.2 mg OD s.c., week 72, Fibrosis stage 2 or 3 at baseline
[10] = 0.2 mg OD s.c., week 72, Fibrosis stage 3 at baseline
[11] = 0.4 mg OD s.c., week 72, Fibrosis stage 1-3 at baseline (all randomised subjects)
[12] = 0.4 mg OD s.c., week 72, Fibrosis stage 1 at baseline
[13] = 0.4 mg OD s.c., week 72, Fibrosis stage 2 at baseline
[14] = 0.4 mg OD s.c., week 72, Fibrosis stage 2 or 3 at baseline
[15] = 0.4 mg OD s.c., week 72, Fibrosis stage 3 at baseline
[16] = all tested semaglutide dosages, liver fibrosis stage 1-3 at baseline

N-epsilon26-[2-(2-{2-[2-(2-{2-[(S)-4-Carboxy-4-(17-carboxyheptadecanoyl-amino)butyrylamino]ethoxy}ethoxy)acetylamino]ethoxy}ethoxy)acetyl] [Aib8, Arg34]GLP-1-(7-37) [Semaglutide]
Improvement of hepatocyte ballooning at end of trial compared to baseline, proportion of subjects [1]: 61.3%
Improvement of lobular inflammation at end of trial compared to baseline, proportion of subjects [1]: 41.3%
Improvement of steatosis at end of trial compared to baseline, proportion of subjects [1]: 52.5%
Resolution of NASH and no worsening in liver fibrosis at end of trial, proportion of subjects [1]: 43.8 (0.0023) %
Resolution of NASH at end of trial, proportion of subjects [1]: 47.5%
Improvement of hepatocyte ballooning at end of trial compared to baseline, proportion of subjects [2]: 60.9%
Improvement of lobular inflammation at end of trial compared to baseline, proportion of subjects [2]: 34.8%
Improvement of steatosis at end of trial compared to baseline, proportion of subjects [2]: 56.5%
Resolution of NASH and no worsening in liver fibrosis at end of trial, proportion of subjects [2]: 52.2%
Resolution of NASH at end of trial, proportion of subjects [2]: 60.9%
Improvement of hepatocyte ballooning at end of trial compared to baseline, proportion of subjects [3]: 66.7%
Improvement of lobular inflammation at end of trial compared to baseline, proportion of subjects [3]: 33.3%
Improvement of steatosis at end of trial compared to baseline, proportion of subjects [3]: 61.1%
Resolution of NASH and no worsening in liver fibrosis at end of trial, proportion of subjects [3]: 55.6%
Resolution of NASH at end of trial, proportion of subjects [3]: 55.6%
Improvement of hepatocyte ballooning at end of trial compared to baseline, proportion of subjects [4]: 61.4%
Improvement of lobular inflammation at end of trial compared to baseline, proportion of subjects [4]: 43.9%
Improvement of steatosis at end of trial compared to baseline, proportion of subjects [4]: 50.9%
Resolution of NASH and no worsening in liver fibrosis at end of trial, proportion of subjects [4]: 40.4 (0.0100) %
Resolution of NASH at end of trial, proportion of subjects [4]: 42.1%
Improvement of hepatocyte ballooning at end of trial compared to baseline, proportion of subjects [5]: 59.0%
Improvement of lobular inflammation at end of trial compared to baseline, proportion of subjects [5]: 48.7%
Improvement of steatosis at end of trial compared to baseline, proportion of subjects [5]: 46.2%
Resolution of NASH and no worsening in liver fibrosis at end of trial, proportion of subjects [5]: 33.3%
Resolution of NASH at end of trial, proportion of subjects [5]: 35.9%
Worsening of liver fibrosis stage determined via liver biopsy at end of trial compared to baseline, Proportion of subjects (0.1 mg OD s.c., week 72): 10.0%
Improvement of hepatocyte ballooning at end of trial compared to baseline, proportion of subjects [6]: 70.5%
Improvement of lobular inflammation at end of trial compared to baseline, proportion of subjects [6]: 47.4%
Improvement of steatosis at end of trial compared to baseline, proportion of subjects [6]: 60.3%
Resolution of NASH and no worsening in liver fibrosis at end of trial, proportion of subjects [6]: 38.5 (0.0138) %
Resolution of NASH at end of trial, proportion of subjects [6]: 46.2%
Improvement of hepatocyte ballooning at end of trial compared to baseline, proportion of subjects [7]: 84.2%
Improvement of lobular inflammation at end of trial compared to baseline, proportion of subjects [7]: 42.1%
Improvement of steatosis at end of trial compared to baseline, proportion of subjects [7]: 63.2%
Resolution of NASH and no worsening in liver fibrosis at end of trial, proportion of subjects [7]: 47.4%
Resolution of NASH at end of trial, proportion of subjects [7]: 68.4%
Improvement of hepatocyte ballooning at end of trial compared to baseline, proportion of subjects [8]: 72.2%
Improvement of lobular inflammation at end of trial compared to baseline, proportion of subjects [8]: 38.9%
Improvement of steatosis at end of trial compared to baseline, proportion of subjects [8]: 66.7%
Resolution of NASH and no worsening in liver fibrosis at end of trial, proportion of subjects [8]: 55.6%
Resolution of NASH at end of trial, proportion of subjects [8]: 61.1%
Improvement of hepatocyte ballooning at end of trial compared to baseline, proportion of subjects [9]: 66.1%
Improvement of lobular inflammation at end of trial compared to baseline, proportion of subjects [9]: 49.2%
Improvement of steatosis at end of trial compared to baseline, proportion of subjects [9]: 59.3%
Resolution of NASH and no worsening in liver fibrosis at end of trial, proportion of subjects [9]: 35.6 (0.0359) %
Resolution of NASH at end of trial, proportion of subjects [9]: 39.0%
Improvement of hepatocyte ballooning at end of trial compared to baseline, proportion of subjects [10]: 63.4%
Improvement of lobular inflammation at end of trial compared to baseline, proportion of subjects [10]: 53.7%
Improvement of steatosis at end of trial compared to baseline, proportion of subjects [10]: 56.1%
Resolution of NASH and no worsening in liver fibrosis at end of trial, proportion of subjects [10]: 26.8%
Resolution of NASH at end of trial, proportion of subjects [10]: 29.3%
Worsening of liver fibrosis stage determined via liver biopsy at end of trial compared to baseline, Proportion of subjects (0.2 mg OD s.c., week 72): 7.7%
Improvement of hepatocyte ballooning at end of trial compared to baseline, proportion of subjects [11]: 74.4%
Improvement of lobular inflammation at end of trial compared to baseline, proportion of subjects [11]: 37.8%
Improvement of steatosis at end of trial compared to baseline, proportion of subjects [11]: 63.4%
Resolution of NASH and no worsening in liver fibrosis at end of trial, proportion of subjects [11]: 56.1 (<0.0001) %
Resolution of NASH at end of trial, proportion of subjects [11]: 61.0%
Improvement of hepatocyte ballooning at end of trial compared to baseline, proportion of subjects [12]: 57.7%
Improvement of lobular inflammation at end of trial compared to baseline, proportion of subjects [12]: 15.4%
Improvement of steatosis at end of trial compared to baseline, proportion of subjects [12]: 53.8%
Resolution of NASH and no worsening in liver fibrosis at end of trial, proportion of subjects [12]: 50.0%
Resolution of NASH at end of trial, proportion of subjects [12]: 53.8%
Improvement of hepatocyte ballooning at end of trial compared to baseline, proportion of subjects [13]: 78.6%
Improvement of lobular inflammation at end of trial compared to baseline, proportion of subjects [13]: 50.0%
Improvement of steatosis at end of trial compared to baseline, proportion of subjects [13]: 71.4%
Resolution of NASH and no worsening in liver fibrosis at end of trial, proportion of subjects [13]: 64.3%
Resolution of NASH at end of trial, proportion of subjects [13]: 78.6%
Improvement of hepatocyte ballooning at end of trial compared to baseline, proportion of subjects [14]: 82.1%
Improvement of lobular inflammation at end of trial compared to baseline, proportion of subjects [14]: 48.2%
Improvement of steatosis at end of trial compared to baseline, proportion of subjects [14]: 67.9%
Resolution of NASH and no worsening in liver fibrosis at end of trial, proportion of subjects [14]: 58.9 (<0.0001) %
Resolution of NASH at end of trial, proportion of subjects [14]: 64.3%
Improvement of hepatocyte ballooning at end of trial compared to baseline, proportion of subjects [15]: 83.3%
Improvement of lobular inflammation at end of trial compared to baseline, proportion of subjects [15]: 47.6%
Improvement of steatosis at end of trial compared to baseline, proportion of subjects [15]: 66.7%
Resolution of NASH and no worsening in liver fibrosis at end of trial, proportion of subjects [15]: 75.1%
Resolution of NASH at end of trial, proportion of subjects [15]: 59.5%
Worsening of liver fibrosis stage determined via liver biopsy at end of trial compared to baseline, Proportion of subjects (0.4 mg OD s.c., week 72): 4.9%
Worsening of liver fibrosis stage compared to placebo (in words) (all semaglutide dosages tested, week 72): lower proportion of subjects
Resolution of NASH and no worsening in liver fibrosis compared to placebo (in words) [16]: achieved by significantly more subjects compared to placebo
Resolution of NASH compared to placebo (in words) [16]: achieved by significantly more subjects compared to placebo
